The source of these data is patent publication US10029984B2, “Mono- or di-substituted indole derivatives as dengue viral replication inhibitors” (Janssen Pharmaceuticals, Inc., priority 2015, dated 2018).

Molecules are shown by their SMILES.

One series has as its system Vero cells. The series can be described thus: in vitro. The format is cell-based. The note with it: African green monkey. As to the method:
In parallel, the toxicity of the compounds was assessed on the same plates. Once the read-out for the eGFP signal was done, 10 μL of resazurin, a cell viability stain, was added to all wells of the 384-well plates. The resazurin assay is based on the reduction of the blue resazurin by NADH, produced by the cells, into the highly fluorescent product, resorufin. The formation of pink fluorescent resorufin is directly related to the number of viable cells in the well. The plates were incubated for an additional 5 hours in a fully humidified incubator (37° C., 5% CO2). Next, the plates were measured on an Infinite reader (Tecan) using an excitation wavelength of 530 nm. The half maximal cytotoxic concentration (CC50) was also determined, defined as the concentration required to reduce the resazurin conversion by 50% compared to that of the cell control wells. Finally, the selectivity index (SI) was determined for the compounds, which was calculated as followed: SI=CC50/EC50.

The subject of the next series is DENV-2 16681 strain. In words: DENV-2 antiviral assay (eGFP-labeled virus in Vero cells). The format is cell-based, Dengue virus. The note with it: DENV-2 16681 eGFP, MOI 0.5, 3 days. As to the method:
The antiviral activity of all the compounds of the invention was tested against DENV-2 16681 strain which was labeled with enhanced green fluorescent protein (eGPF; Table 1). The culture medium consists of minimal essential medium supplemented with 2% of heat-inactivated fetal calf serum, 0.04% gentamycin (50 mg/mL) and 2 mM of L-glutamine. Vero cells, obtained from ECACC, were suspended in culture medium and 25 μL was added to 384-well plates (2500 cells/well), which already contain the antiviral compounds. Typically, these plates contain a 4-fold serial dilution of 9 dilution steps of the test compound at 200 times the final concentration in 100% DMSO (200 nL). In addition, each compound concentration is tested in quadruplicate (final concentration range: 25 μM-0.00038 μM). Finally, each plate contains wells which are assigned as virus controls (containing cells and virus in the absence of compound), cell controls (containing cells in the absence of virus and compound) and medium controls (containing medium in the absence of cells, virus and compounds). To the wells assigned as medium control, 25 μL of culture medium was added instead of Vero cells. Once the cells were added to the plates, the plates were incubated for 30 minutes at room temperature to allow the cells to distribute evenly within the wells. Next, the plates were incubated in a fully humidified incubator (37° C., 5% CO2) until the next day. Then, DENV-2 strain 16681, labeled with eGFP, was added at a multiplicity of infection (MOI) of 0.5. Therefore, 15 μL of virus suspension was added to all the wells containing test compound and to the wells assigned as virus control. In parallel, 15 μL of culture medium was added to the medium and cell controls. Next, the plates were incubated for 3 days in a fully humidified incubator (37° C., 5% CO2). At the day of the read out, the eGFP fluorescence was measured using an automated fluorescence microscope at 488 nm (blue laser). Using an in-house LIMS system, inhibition dose response curves for each compound were calculated and the half maximal effective concentration (EC50) was determined. Therefore, the percent inhibition (I) for every test concentration is calculated using the following formula: I=100*(ST−SCC)/(SVC−SCC); ST, SCC and SVC are the amount of eGFP signal in the test compound, cell control and virus control wells, respectively. The EC50 represents the concentration of a compound at which the virus replication is inhibited with 50%, as measured by a 50% reduction of the eGFP fluorescent intensity compared to the virus control. The EC50 is calculated using linear interpolation.

In general, CC50 refers to the concentration at which the toxic effect on the cells reaches its halfway point. What is called EC50 is the concentration that produces a half-maximal response.

With `COc1cc(NC(C(=O)c2c[nH]c3cc(OC)c(F)cc23)c2ccc(F)cc2OC)cc(S(C)(=O)=O)c1` (single isomer, unassigned) [Enantiomer 11B, 2-(4-fluoro-2-methoxyphenyl)-1-(5-fluoro-6-methoxy-1H-indol-3-yl)-2-((3-methoxy-5-(methylsulfonyl)phenyl)amino)ethanone], the CC50 with Vero cells was above 25000 nM. In the series with DENV-2 16681 strain (listed as 11B), this compound had an EC50 of 55 nM.
Regarding `COc1cc(NC(C(=O)c2c[nH]c3cc(F)c(C)cc23)c2ccc(F)cc2OC)cc(S(C)(=O)=O)c1` (single isomer, unassigned) [Enantiomer 14B, 2-(4-fluoro-2-methoxyphenyl)-1-(6-fluoro-5-methyl-1H-indol-3-yl)-2-((3-methoxy-5-(methylsulfonyl)phenyl)amino)ethanone], in the series with Vero cells, it took 11000 nM to reach half-maximal cytotoxicity (CC50). The compound also registered a half-maximal effective concentration (EC50) with DENV-2 16681 strain (listed as 14B) of 41 nM.
`COc1cc(NC(C(=O)c2c[nH]c3c(C)cc(F)cc23)c2ccc(F)cc2OC)cc(S(C)(=O)=O)c1` (single isomer, unassigned) [Enantiomer 8B, 2-(4-fluoro-2-methoxyphenyl)-1-(5-fluoro-7-methyl-1H-indol-3-yl)-2-((3-methoxy-5-(methylsulfonyl)phenyl)amino)ethanone] returned a CC50 in the series with Vero cells of 11000 nM. Besides, in the series on DENV-2 16681 strain (listed as 8B), a half-maximal effect (EC50) was put at 240 nM.
In the series with Vero cells, `COc1cc(NC(C(=O)c2c[nH]c3cc(OC)c(Cl)cc23)c2ccc(F)cc2OC)cc(S(C)(=O)=O)c1` (single isomer, unassigned) [Enantiomer 16B, 1-(5-chloro-6-methoxy-1H-indol-3-yl)-2-(4-fluoro-2-methoxyphenyl)-2-((3-methoxy-5-(methylsulfonyl)phenyl)amino)ethanone] came in with a CC50 of 22000 nM. For the same compound, the concentration giving a half-maximal response (EC50) with DENV-2 16681 strain (listed as 16B) turned out to be 13 nM.
In turn, `COc1cc(NC(C(=O)c2c[nH]c3c(Cl)c(OC)ccc23)c2ccc(F)cc2OC)cc(S(C)(=O)=O)c1` (single isomer, unassigned) [Enantiomer 12B, 1-(7-chloro-6-methoxy-1H-indol-3-yl)-2-(4-fluoro-2-methoxyphenyl)-2-((3-methoxy-5-(methylsulfonyl)phenyl)amino)ethanone] gave a CC50 in the series on Vero cells above 25000 nM. This compound also showed an EC50 in the series on DENV-2 16681 strain (listed as 12B) of 21 nM.
Compound `COc1cc(NC(C(=O)c2c[nH]c3cc(Cl)ccc23)c2ccc(F)cc2OC)cc(S(C)(=O)=O)c1` (single isomer, unassigned) [Enantiomer 4B, 1-(6-chloro-1H-indol-3-yl)-2-(4-fluoro-2-methoxyphenyl)-2-((3-methoxy-5-(methylsulfonyl)phenyl)amino)ethanone] showed a CC50 with Vero cells of 16000 nM. Further, in the series on DENV-2 16681 strain (listed as 4B), the response was half-maximal at 18 nM (EC50).
`COc1cc(NC(C(=O)c2c[nH]c3c(C)c(F)ccc23)c2ccc(F)cc2OC)cc(S(C)(=O)=O)c1` (single isomer, unassigned) [Enantiomer 2B, 2-(4-fluoro-2-methoxyphenyl)-1-(6-fluoro-7-methyl-1H-indol-3-yl)-2-((3-methoxy-5-(methylsulfonyl)phenyl)amino)ethanone] registered a 50% cytotoxic concentration (CC50) in the series on Vero cells of 8000 nM. Besides, the EC50 with DENV-2 16681 strain (listed as 2B) was 55 nM.
In the series on Vero cells, `COc1cc(NC(C(=O)c2c[nH]c3ccc(OC(F)(F)F)cc23)c2ccc(F)cc2OC)cc(S(C)(=O)=O)c1` (single isomer, unassigned) [Enantiomer 18B, 2-(4-fluoro-2-methoxyphenyl)-2-((3-methoxy-5-(methylsulfonyl)phenyl)amino)-1-(5-(trifluoromethoxy)-1H-indol-3-yl)ethanone] showed a CC50 of 10000 nM. For the same compound, the EC50 in the series with DENV-2 16681 strain (listed as 18B) was 9.2 nM.
In the case of `COc1cc(NC(C(=O)c2c[nH]c3ccc(C(F)(F)F)cc23)c2ccc(F)cc2OC)cc(S(C)(=O)=O)c1` (single isomer, unassigned) [Enantiomer 17A, 2-(4-fluoro-2-methoxyphenyl)-2-((3-methoxy-5-(methylsulfonyl)phenyl)amino)-1-(5-(trifluoromethyl)-1H-indol-3-yl)ethanone], the CC50 with Vero cells was found to be 14000 nM. The compound further had an EC50 in the series with DENV-2 16681 strain (listed as 17A) of 38 nM.
In the series on Vero cells, `COc1cc(NC(C(=O)c2c[nH]c3cc(OC)c(C)cc23)c2ccc(F)cc2OC)cc(S(C)(=O)=O)c1` (single isomer, unassigned) [Enantiomer 10A, 2-(4-fluoro-2-methoxyphenyl)-2-((3-methoxy-5-(methylsulfonyl)phenyl)amino)-1-(6-methoxy-5-methyl-1H-indol-3-yl)ethanone] had a CC50 of 18000 nM. Besides, a half-maximal effect in the series on DENV-2 16681 strain (listed as 10A) (EC50) was put at 54 nM.
As to `COc1cc(NC(C(=O)c2c[nH]c3ccc(C)cc23)c2ccc(F)cc2OC)cc(S(C)(=O)=O)c1` (single isomer, unassigned) [Enantiomer 15B, 2-(4-fluoro-2-methoxyphenyl)-2-((3-methoxy-5-(methylsulfonyl)phenyl)amino)-1-(5-methyl-1H-indol-3-yl)ethanone], in the series with Vero cells, the 50% cytotoxic concentration (CC50) was found to be 17000 nM. Further, a half-maximal response with DENV-2 16681 strain (listed as 15B) (EC50) required 73 nM.
Take `COc1cc(NC(C(=O)c2c[nH]c3cc(F)ccc23)c2ccc(F)cc2OC)cc(S(C)(=O)=O)c1` (single isomer, unassigned) [Enantiomer 1B, 1-(6-fluoro-1H-indol-3-yl)-2-(4-fluoro-2-methoxyphenyl)-2-((3-methoxy-5-(methylsulfonyl)phenyl)amino)ethanone]: in the series on Vero cells, the midpoint of cytotoxicity, the CC50, lay at 12000 nM. In the series on DENV-2 16681 strain (listed as 1B), this compound returned an EC50 of 50 nM.
In the series with Vero cells, `COc1cc(NC(C(=O)c2c[nH]c3cc(C)c(F)cc23)c2ccc(F)cc2OC)cc(S(C)(=O)=O)c1` (single isomer, unassigned) [Enantiomer 9B, 2-(4-fluoro-2-methoxyphenyl)-1-(5-fluoro-6-methyl-1H-indol-3-yl)-2-((3-methoxy-5-(methylsulfonyl)phenyl)amino)ethanone] registered a CC50 of 21000 nM. This compound also yielded an EC50 in the series with DENV-2 16681 strain (listed as 9B) of 98 nM.
`COc1cc(NC(C(=O)c2c[nH]c3c(C)c(Cl)ccc23)c2ccc(F)cc2OC)cc(S(C)(=O)=O)c1` (single isomer, unassigned) [Enantiomer 3B, 1-(6-chloro-7-methyl-1H-indol-3-yl)-2-(4-fluoro-2-methoxyphenyl)-2-((3-methoxy-5-(methylsulfonyl)phenyl)amino)ethanone]: in the series on Vero cells, the CC50 came to 11000 nM. Further, a half-maximal effect in the series on DENV-2 16681 strain (listed as 3B) (EC50) was put at 32 nM.
In the series with Vero cells, `COc1cc(NC(C(=O)c2c[nH]c3cc(F)c(F)cc23)c2ccc(F)cc2OC)cc(S(C)(=O)=O)c1` (single isomer, unassigned) [Enantiomer 7B, 1-(5,6-difluoro-1H-indol-3-yl)-2-(4-fluoro-2-methoxyphenyl)-2-((3-methoxy-5-(methylsulfonyl)phenyl)amino)ethanone] yielded a CC50 of 9600 nM. The same compound came in with a concentration giving a half-maximal response (EC50) in the series with DENV-2 16681 strain (listed as 7B) of 43 nM.
`COc1cc(NC(C(=O)c2c[nH]c3c(F)cc(C)cc23)c2ccc(F)cc2OC)cc(S(C)(=O)=O)c1` (single isomer, unassigned) [Enantiomer 6B, 2-(4-fluoro-2-methoxyphenyl)-1-(7-fluoro-5-methyl-1H-indol-3-yl)-2-((3-methoxy-5-(methylsulfonyl)phenyl)amino)ethanone]: the CC50 with Vero cells amounted to 12000 nM. In the series on DENV-2 16681 strain (listed as 6B), this compound registered an EC50 of 200 nM.
